This is an account of results in patent US7732429B2 (Trustees of Tufts College, priority 1994, dated 2010).

What is called Ki is the equilibrium dissociation constant of an inhibitor or competing ligand from its target.

Converted amounts (≈) assume the structure as drawn. Like-named read-outs stand apart in the source and are kept apart here.

The subject of experiment [1] is E. faecalis Tc^r(M) (ATCC09790r/TelM). It counts as cell-based. The settings on record: drug alone; for MLC: kills 99.9%.
In experiment [2] the test system is E. coli Class B Tc^r (DI-209). It counts as cell-based. Conditions: drug alone; for MLC: kills 99.9%.
The subject of experiment [3] is E. faecalis Tc^r (L) ATCC9790r/Tell.). As to the kind of experiment: susceptibility testing MIC/MLC, drug alone. It counts as cell-based.
In a further experiment the target is T1, efflux protein (Escherichia coli, UniProt P02980).
T1 sequence (P02980 1-401): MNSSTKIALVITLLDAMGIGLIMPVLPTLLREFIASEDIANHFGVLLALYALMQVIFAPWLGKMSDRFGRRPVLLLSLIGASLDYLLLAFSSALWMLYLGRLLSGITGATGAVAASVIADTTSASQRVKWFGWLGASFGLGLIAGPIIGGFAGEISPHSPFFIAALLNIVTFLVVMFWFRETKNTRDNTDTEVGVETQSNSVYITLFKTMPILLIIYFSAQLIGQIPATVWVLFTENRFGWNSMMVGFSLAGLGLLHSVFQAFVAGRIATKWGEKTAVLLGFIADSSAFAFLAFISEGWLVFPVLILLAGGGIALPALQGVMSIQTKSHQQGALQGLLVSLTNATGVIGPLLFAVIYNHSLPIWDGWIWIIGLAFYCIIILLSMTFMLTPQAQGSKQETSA
Briefly: everted membrane vesicle assay, blocking activity of 13-S-derivatives. Type of experiment: biochemical.

The test system of experiment [4] is E. coli Tc^s (MI 308-226). Briefly: susceptibility testing MIC/MLC, drug alone. Type of experiment: cell-based. The settings on record: Tc^s (MI 308-226), drug alone; for MLC: kills 99.9%.
The test system of experiment [5] is E. faecalis Tc^s (ATCC9790r). As to the kind of experiment: susceptibility testing MIC/MLC, drug alone. Type of experiment: cell-based.
For experiment [6], the system named is E. coli Class A Tc^r (DI-299). Type of experiment: cell-based. Conditions: drug alone; for MLC: kills 99.9%.
The test system of another experiment is S. aureus Tc^r (RN4250). Type of experiment: cell-based.
Experiment [7] deals with tetracycline resistant S. aureus. The settings on record: in combination with tetracycline.
The next experiment has as its system E. faecalis (Class M). The settings on record: result in words.
For the next experiment, the system named is S. aureus 450. Briefly: susceptibility of tetracycline susceptible strains (MIC), C5 esters. It counts as cell-based. The settings on record: S. aureus 450, susceptible strain, drug alone.
For another experiment, the system named is E. faecalis ATCC 9790. The experiment is described as above. Type of experiment: cell-based. The settings on record: E. faecalis ATCC 9790, susceptible strain, drug alone.
A further experiment relates to E. faecalis 211 (Tet M). Briefly: MIC/MLC chart, analog with and without doxycycline. It counts as cell-based.
The next experiment relates to E. coli DI-299 (Tet A). Briefly: MIC/MLC chart, analog with and without doxycycline. Type of experiment: cell-based. Further details: key to growth/killing, Analog + Doxy / growth/killing, Doxy Control / growth/killing, Analog Control / growth in MIC/MLC chart: +=growth; 0=no growth (MIC); ↓=killing; ? =99.9% killing (MLC); □=no growth, but no microbiologic testing.
The test system of another experiment is E. coli ML308. As to the kind of experiment: susceptibility of tetracycline susceptible strains (MIC), C5 esters. Type of experiment: cell-based. The settings on record: E. coli ML308, susceptible strain, drug alone.
Experiment [8] concerns tetracycline resistant (Class A) E. coli (strain D1-299). Conditions: in combination with tetracycline.
The mark [9] stands for this setting: E. faecalis bearing the Tet L determinant.
[10] abbreviates: Tc^r (L) ATCC9790r/Tell.), drug alone.
Setting [11] is: Tc^r (L) ATCC9790r/Tell.), drug alone, kills 99.9%.
[12] abbreviates: Tc^r(RN4250), drug alone, kills 99.9%.
The mark [13] stands for this setting: Analog Control: analog alone .195 μg/ml.
The mark [14] stands for this setting: analog .195 μg/ml + doxycycline 1.56 μg/ml.
The mark [15] stands for this setting: analog .195 μg/ml + doxycycline 3.12 μg/ml.
Setting [16] is: analog .195 μg/ml + doxycycline 6.25 μg/ml.
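Throughout, for MLC of analog in combination: bacterial growth inhibition and killing in broth, each agent tested alone or combined with doxycycline across two-fold serial dilutions, overnight incubation.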

As for `CN(C)C1C(O)=C(C(N)=O)C(=O)C2(O)C(O)=C3C(=O)c4c(O)cccc4C(CSCc4ccccc4)C3C(O)C12` (centres unmarked) [Benzyl, 6-deoxy-13-(benzylmercapto) tetracycline], the MIC in experiment [1] stood at 3.5 ± 1 µg; in experiment [2], 30 ± 0.25 µg; in [3] (setting [10]), 0.75 ± 0.25 µg; in experiment [4], 16 ± 5 µg; in experiment [5] it was 0.5 ± 0.25 µg; in [6], 45 ± 20 µg. The MIC against S. aureus Tc^r (RN4250) (Tc^r(RN4250), drug alone) turned out to be 1 ± 0.25 µg. Further, the MLC in [1] is 18 ± 2 µg; in experiment [2], 90 ± 10 µg; in experiment [3] (setting [9]), 8 ± 2 µg/mL (≈ 14.1 µM); in [3] (setting [11]), 8 ± 2 µg; in experiment [4], 25 ± 6 µg; in [6], 150 ± 50 µg. The MLC with S. aureus Tc^r (RN4250) (setting [12]) worked out at 10 ± 4 µg. The Ki on efflux protein is 1.59 µM. In [7], the “combined dose of the two drugs to achieve MLC” value (“combined dose of the two drugs” below) is no more than 6 µg/mL. The “synergistic activity with tetracycline” value in the experiment with E. faecalis (Class M) is listed as “little, if any synergistic activity”.
Take `CCC(=O)OC1C2C(=C(O)C3(O)C(=O)C(C(N)=O)=C(O)C(N(C)C)C13)C(=O)c1c(O)cccc1C2CSC1CCCC1` (centres unmarked) [Cmpd 5, 13-cyclopentylthio-5-proprionate-6-deoxy tetracycline]: the MIC entry in the experiment with S. aureus 450 is “.4 µg/mL”; against E. faecalis ATCC 9790 it was “.4 µg/mL”; in the experiment with E. coli ML308, 20 µg/mL (≈ 33.3 µM). Besides, the “growth in MIC/MLC chart” value in the experiment with E. faecalis 211 (Tet M) (setting [13]), with E. faecalis 211 (Tet M) (setting [14]), in the experiment with E. faecalis 211 (Tet M) (setting [15]), in the experiment with E. faecalis 211 (Tet M) (setting [16]), with E. coli DI-299 (Tet A) (Analog Control: analog alone 1.56 μg/ml) and in the experiment with E. coli DI-299 (Tet A) (Analog Control: analog alone 3.12 μg/ml) was “+” each time. Also, the “growth in MIC/MLC chart” value in the experiment on E. coli DI-299 (Tet A) (Analog Control: analog alone 6.25 μg/ml), in the experiment with E. coli DI-299 (Tet A) (Analog Control: analog alone 12.5 μg/ml), with E. coli DI-299 (Tet A) (Analog Control: analog alone 25.0 μg/ml), in the experiment on E. coli DI-299 (Tet A) (Analog Control: analog alone 50.00 μg/ml), with E. coli DI-299 (Tet A) (setting [13]) and in the experiment with E. coli DI-299 (Tet A) (Analog Control: analog alone .39 μg/ml) was “+” each time. For the same compound, the “growth in MIC/MLC chart” value with E. coli DI-299 (Tet A) (Analog Control: analog alone .78 μg/ml), with E. coli DI-299 (Tet A) (analog 1.56 μg/ml + doxycycline 1.55 μg/ml), in the experiment on E. coli DI-299 (Tet A) (analog 1.56 μg/ml + doxycycline 3.1 μg/ml), in the experiment with E. coli DI-299 (Tet A) (analog 1.56 μg/ml + doxycycline 6.2 μg/ml), in the experiment on E. coli DI-299 (Tet A) (analog 3.12 μg/ml + doxycycline 1.53 μg/ml) and with E. coli DI-299 (Tet A) (analog 3.12 μg/ml + doxycycline 3.05 μg/ml) was “+” each time. For the same compound, the “growth in MIC/MLC chart” value with E. coli DI-299 (Tet A) (analog 3.12 μg/ml + doxycycline 6.1 μg/ml), in the experiment with E. coli DI-299 (Tet A) (analog 6.25 μg/ml + doxycycline 3.0 μg/ml), in the experiment on E. coli DI-299 (Tet A) (analog 6.25 μg/ml + doxycycline […]), in the experiment with E. coli DI-299 (Tet A) (analog 12.5 μg/ml + doxycycline 2.8 μg/ml), in the experiment with E. coli DI-299 (Tet A) (analog 12.5 μg/ml + doxycycline […]) and in the experiment with E. coli DI-299 (Tet A) (analog 25 μg/ml + doxycycline 2.4 μg/ml) was “+” each time. Also, the “growth in MIC/MLC chart” value in the experiment with E. coli DI-299 (Tet A) (analog 25 μg/ml + doxycycline […]), in the experiment on E. coli DI-299 (Tet A) (analog 50 μg/ml + doxycycline 1.56 μg/ml), in the experiment on E. coli DI-299 (Tet A) (analog 50 μg/ml + doxycycline .78 μg/ml), in the experiment with E. coli DI-299 (Tet A) (setting [14]), with E. coli DI-299 (Tet A) (setting [15]) and with E. coli DI-299 (Tet A) (setting [16]) was “+” in each case. In addition, the “growth in MIC/MLC chart” value in the experiment on E. coli DI-299 (Tet A) (analog .195 μg/ml + doxycycline 12.5 μg/ml), in the experiment on E. coli DI-299 (Tet A) (analog .195 μg/ml + doxycycline 25.0 μg/ml), with E. coli DI-299 (Tet A) (analog .39 μg/ml + doxycycline 1.56 μg/ml), with E. coli DI-299 (Tet A) (analog .39 μg/ml + doxycycline 3.12 μg/ml), in the experiment on E. coli DI-299 (Tet A) (analog .39 μg/ml + doxycycline 6.25 μg/ml) and in the experiment on E. coli DI-299 (Tet A) (analog .39 μg/ml + doxycycline 12.5 μg/ml) was “+” in each case. Further, the “growth in MIC/MLC chart” value with E. coli DI-299 (Tet A) (analog .39 μg/ml + doxycycline 24.9 μg/ml) is given as “↓”; in the experiment with E. coli DI-299 (Tet A) (analog .78 μg/ml + doxycycline 1.56 μg/ml) it was “+”; with E. coli DI-299 (Tet A) (analog .78 μg/ml + doxycycline 3.12 μg/ml) it was “+”; in the experiment on E. coli DI-299 (Tet A) (analog .78 μg/ml + doxycycline 6.23 μg/ml), “+”. Further, the “MLC of analog in combination” value in the experiment with E. coli DI-299 (Tet A) (with 5.9 μg/ml of doxycycline (Chart 8A)) turned out to be 6.25 μg/ml.
As to `CCCSCC1c2cccc(O)c2C(=O)C2=C(O)C3(O)C(=O)C(C(N)=O)=C(O)C(N(C)C)C3C(OC(=O)CC)C21` (centres unmarked) [Cmpd 8, 13-propylthio-5-proprionate-6-deoxy-tetracycline], the MIC result in the experiment on S. aureus 450 is “.3 µg/mL”; with E. faecalis ATCC 9790 it was 2.5 µg/mL (≈ 4.35 µM); in the experiment with E. coli ML308, 20 µg/mL (≈ 34.8 µM).
As for `CN(C)C1C(O)=C(C(N)=O)C(=O)C2(O)C(O)=C3C(=O)c4c(O)cccc4C(CSC4CCCCC4)C3C(O)C12` (centres unmarked) [Cyclohexyl], the MIC worked out at 2.5 ± 0.5 µg in [1]; 1.5 ± 0.5 µg in experiment [3] (setting [10]); 60 ± 10 µg in [4]; 1.25 ± 0.25 µg in experiment [5]; 100 ± 0.26 µg in experiment [6]; 1.5 ± 0.5 µg with S. aureus Tc^r (RN4250) (Tc^r(RN4250), drug alone). Further, the MLC was 10 ± 0.25 µg in [1]; 8 ± 2 µg/mL (≈ 14.3 µM) in [3] (setting [9]); 8 ± 2 µg in experiment [3] (setting [11]); 120 µg in experiment [4]; greater than 200 µg in experiment [6]; 10 ± 4 µg with S. aureus Tc^r (RN4250) (setting [12]). Moreover, the “concentrations of analogue and tetracycline that inhibited growth” value in [8] was no more than 5 μg/ml. In addition, the affinity at efflux protein corresponds to a Ki of 0.716 µM. Besides, the “combined dose of the two drugs” value in experiment [7] is no more than 6 µg/mL. For the same compound, the “synergistic activity with tetracycline” value in the experiment with E. faecalis (Class M) is recorded as “little, if any synergistic activity”.
As to `CN(C)C1C(O)=C(C(N)=O)C(=O)C2(O)C(O)=C3C(=O)c4c(O)cccc4C(CSC4CCCC4)C3C(O)C12` (stereo not drawn) [Cyclopentyl, 13-cyclopentylthio-5-hydroxy-6-α-deoxy-tetracycline], the MIC in experiment [1] stood at 3 ± 1 µg; in [2], 80 ± 40 µg; in experiment [3] (setting [10]), 1 ± 0.5 µg; in [4], 20 µg; in experiment [5] it was 1 ± 0.25 µg; in [6] it was 40 ± 0.25 µg. The same compound registered an MIC against S. aureus Tc^r (RN4250) (Tc^r(RN4250), drug alone) of 2 ± 0.25 µg. Also, the MLC in experiment [1] is greater than 16 µg; in experiment [2], 100 ± 60 µg; in experiment [3] (setting [11]), 18 ± 2 µg; in experiment [4] it was 60 µg; in experiment [6], 80 µg; with S. aureus Tc^r (RN4250) (setting [12]), 6 ± 2 µg. Further, the MLC with S. aureus Tc^r (RN4250) (resistant S. aureus) came to 6 ± 2 µg/mL (≈ 11 µM). Moreover, the “concentrations of analogue and tetracycline that inhibited growth” value in experiment [8] is on record as no more than 5 μg/ml. The Ki on efflux protein is 0.367 µM. The “combined dose of the two drugs” value in experiment [7] was no more than 6 µg/mL. In addition, the “synergistic activity with tetracycline” value in the experiment with E. faecalis (Class M) is reported as “little, if any synergistic activity”.
